Source: patent US7910109B2, “MHC class II epitopes of 5T4 antigen” (Oxford Biomedica (UK) Ltd., priority 2002, dated 2011)

Tests used:
[1] = tested on: PBMCs from breast cancer patient OBCR25; assay: proliferation assay (3H-thymidine) with h5T4 class II peptide pools and peptides; type: cell-based, human; details: PBMCs of breast cancer patient OBCR25, 6 days incubation, 3H-thymidine pulse overnight
Experimental: FIG. 1 is a schematic diagram illustrating the proliferation assay for measuring cellular responses
A h5T4 peptide library was produced consisting of 51 20 mer peptides overlapping by […]. Class II peptide pools containing 5 peptides per pool were incubated with PBMCs from breast cancer patients OBCR24 and OBCR25 and proliferation was measures using the assay illustrated in FIG. 1. After 6 days incubation, cells were pulsed overnight with ^3H-thymidine and incubated overnight at 37° C.

PBMCs from OBCR25 = assay: IFNγ ELISPOT assay after restimulation in vitro with h5T4 peptides; type: cell-based, human; details: PBMCs from OBCR25 restimulated in vitro with h5T4 peptides
Experimental: FIG. 2 is a schematic diagram illustrating the ELISPOT assay for measuring antigen-specific IFNγ production.
To measure antigen-specific IFNγ production, an ELISPOT assay was conducted following the general scheme illustrated in FIG. 2.

For “YRYEINADPRLTNLSSNSDV (listed as Homo sapiens) [peptide #51, extreme C-terminal 20 amino acids (401-420) of h5T4; 20 mer peptide of pool #10]”, the proliferative response [1] was “positive response” and the “IFNγ ELISPOT response” value (PBMCs from OBCR25) was “positive ELISPOT response”.
